Measured values reported in ChEMBL document CHEMBL3045949, “Antifeedant and toxic effects of naturally occurring and synthetic quinones to the cabbage looper, Trichoplusia ni” (Crop Prot, 2012).

What was measured:
Trichoplusia ni [1] = test: Toxicity against Trichoplusia ni (cabbage looper) third-instar larvae stage assessed as mortality at 10 ug/ml for 24 hr by topical application; type: functional
Trichoplusia ni [2] = test: Antifeedant activity against Trichoplusia ni (cabbage looper) third-instar larvae stage assessed as concentrations causing 50% feeding deterrence by feeding deterrent bioassay; type: functional, organism-based
Trichoplusia ni [3] = test: Antifeedant activity against Trichoplusia ni (cabbage looper) third-instar larvae stage assessed as feeding deterrence index at 50 microg/cm'2 by feeding deterrent bioassay; type: functional
Trichoplusia ni [4] = test: Protection of intact cabbage plants from Trichoplusia ni (cabbage looper) measured as reduction in weight of larvae by lopper in green house for 10 days (reference value: 33.8 mg); type: functional
Trichoplusia ni [5] = test: Protection of intact cabbage plants from Trichoplusia ni (cabbage looper) measured as leaf area consumed by lopper in green house for 10 days (reference value: 8.5 cm'2); type: functional

O=C1C=Cc2ccccc2C1=O [1,2-NAPHTHOQUINONE]
mortality at 10 µg/mL (Trichoplusia ni [1]): 3.3% | DC50 (Trichoplusia ni [2]): 1.8 microg/cm2 | FDI (Trichoplusia ni [3]): 100%

O=C1c2ccccc2C(=O)c2c(O)cccc21 [1-HYDROXYANTHRAQUINONE]
mortality at 10 µg/mL (Trichoplusia ni [1]): 10% | FDI (Trichoplusia ni [3]): -41.5%

c1ccc2c(c1)ccc1cccnc12 [1-NAPHTHOQUINOLINE]
mortality at 10 µg/mL (Trichoplusia ni [1]): 10% | DC50 (Trichoplusia ni [2]): 16.4 microg/cm2 | FDI (Trichoplusia ni [3]): 75.7%

O=C1C(Br)=C(Br)C(=O)c2ccccc21 [2,3-Dibromo-1,4-naphthoquinone]
mortality at 10 µg/mL (Trichoplusia ni [1]): 10% | DC50 (Trichoplusia ni [2]): 26.4 microg/cm2 | FDI (Trichoplusia ni [3]): 100%

O=C1C=C(Br)C(=O)c2ccccc21 [2-Bromo-1,4-naphthoquinone]
mortality at 10 µg/mL (Trichoplusia ni [1]): 15% | DC50 (Trichoplusia ni [2]): 8.4 microg/cm2 | FDI (Trichoplusia ni [3]): 80.7%

O=C1C(Cl)=C(N2CCOCC2)C(=O)c2ccccc21 [2-Chloro-3-morpholino-1,4-naphthoquinone]
mortality at 10 µg/mL (Trichoplusia ni [1]): 12% | DC50 (Trichoplusia ni [2]): 9.7 microg/cm2 | FDI (Trichoplusia ni [3]): 100%

COC1=CC(=O)c2ccccc2C1=O [2-Methoxy-1,4-naphthoquinone]
mortality at 10 µg/mL (Trichoplusia ni [1]): 8% | DC50 (Trichoplusia ni [2]): 2.6 microg/cm2 | FDI (Trichoplusia ni [3]): 96.8%

O=C1C(=O)c2ccccc2-c2ccccc21 [9,10-PHENANTHRENEQUINONE]
mortality at 10 µg/mL (Trichoplusia ni [1]): 10% | FDI (Trichoplusia ni [3]): -15.4%

O=C1c2cccc(O)c2C(=O)c2cccc(O)c21 [ANTHRARUFIN]
mortality at 10 µg/mL (Trichoplusia ni [1]): 15% | FDI (Trichoplusia ni [3]): -58.6%

O=C1C=CC(=O)C=C1 [BENZOQUINONE]
FDI (Trichoplusia ni [3]): 17.8%

O=C1C(Cl)=C(Cl)C(=O)C(Cl)=C1Cl [CHLORANIL]
mortality at 10 µg/mL (Trichoplusia ni [1]): 10% | FDI (Trichoplusia ni [3]): 35.8%

O=C1c2cccc(O)c2C(=O)c2c(O)cccc21 [DANTHRON]
mortality at 10 µg/mL (Trichoplusia ni [1]): 12% | DC50 (Trichoplusia ni [2]): 9.2 microg/cm2 | FDI (Trichoplusia ni [3]): 86.2%

CC1=C(Br)C(=O)C(C(C)C)=C(Br)C1=O [Dibromothymoquinone]
mortality at 10 µg/mL (Trichoplusia ni [1]): 5% | FDI (Trichoplusia ni [3]): 42.2%

O=C1C(Cl)=C(Cl)C(=O)c2ccccc21 [Dichlon]
mortality at 10 µg/mL (Trichoplusia ni [1]): 8% | FDI (Trichoplusia ni [3]): 39.8%

Cc1cc(O)c2c(c1)C(=O)c1cc(O)cc(O)c1C2=O [EMODIN]
mortality at 10 µg/mL (Trichoplusia ni [1]): 10% | FDI (Trichoplusia ni [3]): 22.1%

O=C1C=CC(=O)c2c(O)cccc21 [JUGLONE]
Activity (Trichoplusia ni [4]): 8.1 mg | Activity (Trichoplusia ni [5]): 1.7 cm2 | mortality at 10 µg/mL (Trichoplusia ni [1]): 5% | DC50 (Trichoplusia ni [2]): 2.1 microg/cm2 | FDI (Trichoplusia ni [3]): 100%

CC(C)=CCC1=C(O)C(=O)c2ccccc2C1=O [LAPACHOL]
mortality at 10 µg/mL (Trichoplusia ni [1]): 10% | FDI (Trichoplusia ni [3]): 9.1%

CC1=CC(=O)c2ccccc2C1=O [MENADIONE]
mortality at 10 µg/mL (Trichoplusia ni [1]): 13% | DC50 (Trichoplusia ni [2]): 6.3 microg/cm2 | FDI (Trichoplusia ni [3]): 100%

O=C1C=CC(=O)c2c(O)ccc(O)c21 [NAPHTHAZALIN]
mortality at 10 µg/mL (Trichoplusia ni [1]): 20% | DC50 (Trichoplusia ni [2]): 10.1 microg/cm2 | FDI (Trichoplusia ni [3]): 100%

CC1=CC(=O)c2c(O)cccc2C1=O [PLUMBAGIN]
Activity (Trichoplusia ni [4]): 12.7 mg | Activity (Trichoplusia ni [5]): 3.5 cm2 | mortality at 10 µg/mL (Trichoplusia ni [1]): 7% | DC50 (Trichoplusia ni [2]): 3.3 microg/cm2 | FDI (Trichoplusia ni [3]): 100%

CC1=CC(=O)C(C(C)C)=CC1=O [THYMOQUINONE]
mortality at 10 µg/mL (Trichoplusia ni [1]): 26.7% | DC50 (Trichoplusia ni [2]): 19.3 microg/cm2 | FDI (Trichoplusia ni [3]): 100%

COC1=C(OC)C(=O)C(C)=CC1=O [Ubiquinone Qo]
mortality at 10 µg/mL (Trichoplusia ni [1]): 23.3% | DC50 (Trichoplusia ni [2]): 4.2 microg/cm2 | FDI (Trichoplusia ni [3]): 86.7%
